According to patent US5750540A, “1,4-di-substituted piperidine derivatives” (Banyu Pharmaceutical Co., Ltd., priority 1995, dated 1998):

Key:
[1] = biological target: T1, M2 receptors (right atrium) (Rattus norvegicus, UniProt P10980); assay: Antagonism against M2 receptors in an isolated rat right atrium; conditions: in vitro, agonist carbachol
T1 construct: the right atrium was excised; from tissue; host or cells: isolated rat right atrium
T1 sequence (P10980 1-466): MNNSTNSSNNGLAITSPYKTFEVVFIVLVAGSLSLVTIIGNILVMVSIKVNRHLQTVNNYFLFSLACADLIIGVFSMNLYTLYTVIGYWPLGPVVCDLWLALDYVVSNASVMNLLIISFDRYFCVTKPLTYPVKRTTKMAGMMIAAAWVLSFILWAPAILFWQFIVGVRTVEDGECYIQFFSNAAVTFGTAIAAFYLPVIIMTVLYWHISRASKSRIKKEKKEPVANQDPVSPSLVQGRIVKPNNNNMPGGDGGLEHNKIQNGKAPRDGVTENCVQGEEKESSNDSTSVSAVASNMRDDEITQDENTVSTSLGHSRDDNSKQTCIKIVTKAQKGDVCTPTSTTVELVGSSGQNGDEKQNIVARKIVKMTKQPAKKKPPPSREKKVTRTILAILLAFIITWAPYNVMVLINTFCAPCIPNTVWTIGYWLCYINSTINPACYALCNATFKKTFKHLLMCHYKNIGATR
Experimental: 2) Tests for antagonism against the M2 receptors in an isolated rat right atrium
These tests were performed according to an ordinary method. A male SD strain rat (weighing 300-500 g) was killed by exsanguination, and the right atrium was excised. This preparation was isometrically suspended in a Magnus tube filled with 20 ml of Krebs-Henseleit nutrient solution (gassed with 95% O2 -5% CO2 and kept at 32° C.) with an initial tension of 0.5 g. The heart rate was recorded with a heart rate counter. After the preparation was equilibrated for 30 minutes, carbachol (10^-9 to 10^-6 M) was cumulatively administered from the lowermost concentration in three-fold increasing doses. Thus, a decrease in heart rate was measured to obtain a dose-response curve for the control experiment. After the preparation was washed with fresh solution to restore the heart rate, a test compound was administered thereto. Ten minutes later, carbachol was cumulatively administered again. Responses to carbachol were expressed as percentages based on the heart rate before administration of carbachol. The antagonistic potency (KB value) of the test compound (i.e., a compound in accordance with the present invention) was determined from the degree of shift of the dose-response curve obtained by treatment with the test compound.

muscarinic M3 receptor [2] = biological target: T2, muscarinic M3 receptor (Rattus norvegicus, UniProt P08483); assay: Intestinal propulsion in rats (charcoal meal); assay type: in vivo; set-up: from tissue; conditions: i.v., 15% inhibition of intestinal propulsion
T2 sequence (P08483 whole entry): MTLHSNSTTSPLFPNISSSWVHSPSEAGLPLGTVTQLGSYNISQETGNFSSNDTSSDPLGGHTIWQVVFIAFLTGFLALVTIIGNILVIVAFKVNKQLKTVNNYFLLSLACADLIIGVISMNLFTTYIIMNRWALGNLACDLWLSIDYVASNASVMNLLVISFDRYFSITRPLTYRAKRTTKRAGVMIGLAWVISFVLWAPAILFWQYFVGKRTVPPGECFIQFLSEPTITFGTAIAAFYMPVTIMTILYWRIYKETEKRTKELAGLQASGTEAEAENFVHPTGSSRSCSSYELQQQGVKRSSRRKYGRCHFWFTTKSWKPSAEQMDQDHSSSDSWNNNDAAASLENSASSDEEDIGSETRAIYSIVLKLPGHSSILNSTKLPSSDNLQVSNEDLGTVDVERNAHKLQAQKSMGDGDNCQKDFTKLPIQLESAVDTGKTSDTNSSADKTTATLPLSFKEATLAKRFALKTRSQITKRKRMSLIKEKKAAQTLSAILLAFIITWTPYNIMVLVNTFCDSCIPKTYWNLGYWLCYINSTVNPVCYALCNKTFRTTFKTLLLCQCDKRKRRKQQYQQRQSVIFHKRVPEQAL
Experimental: (§1) Tests for antagonism against muscarinic M3 receptor (in vivo)
5) Tests for intestinal propulsion in rats
Five- to seven-weeks-old male rats of the Sprague-Dawley strain were fasted overnight. A test compound was administered intravenously to the animals. Five minutes later, 1 ml per animal of a 5% charcoal suspension was administered orally. Thirty minutes after administration of the charcoal meal, the rats were sacrificed by decapitation, and the gastrointestinal tract was removed. The distance from the pylorus to the point of arrival of the charcoal meal was measured and the transportation rate was calculated. The ID15 value was calculated from the dose-response curve using probit analysis and defined as the drug dose that inhibited intestinal propulsion in the control group by 15%.

muscarinic M2 receptors = biological target: T3, muscarinic M2 receptors (Rattus norvegicus, UniProt P10980); assay: Inhibition of binding to muscarinic M2 receptors ([3H]-N-methylscopolamine, heart membrane); conditions: 0.2 nM [3H]-N-methylscopolamine
T3 construct: a membrane specimen from the heart was used as the membrane specimen; from tissue; host or cells: rat heart membranes (SD rat)
T3 sequence (P10980 1-466): T1 sequence (P10980 1-466)
Experimental: The compounds of formula [I] in accordance with the present invention have a potent and selective inhibitory effect on binding to muscarinic receptors, as well as a potent and selective antagonistic effect on muscarinic receptors both in vitro and in vivo. […] In these tests, their inhibitory and antagonistic effects were expressed in terms of the dissociation constant (Ki) of each test compound which was calculated from its concentration (IC50 ) causing a 50% inhibition of the binding of a labeled ligand to muscarinic receptors. As the labeled ligand, [^3 H]-telenzepine was used for the muscarinic M1 receptors and [^3 H]-N-methylscopolamine for the muscarinic M2 and M3 receptors.
A male SD strain rat (purchased from Nippon Charles River Co., Ltd.), weighing about 250-350 g, was sacrificed, and the cerebral cortex, heart and lacrimal glands were excised. Using a Polytron (setting 5), each organ was homogenized in 5 volumes of an ice-cold buffer solution (pH 7.4) containing 50 mM tris-HCl, 5 mM magnesium chloride, 1 mM trisodium ethylenediaminetetraacetate and 20% sucrose. The resulting homogenate was centrifuged at 3,000×g at 4° C. for 15 minutes, and the supernatant was filtered through gauze and ultracentrifuged at 100,000×g at 4° C. for 45 minutes. The resulting precipitate was suspended in an ice-cold buffer solution (pH 7.4) containing 50 mM tris-HCl and 5 mM magnesium chloride (hereinafter referred briefly to as "tris buffer") and ultracentrifuged at 100,000×g at 4° C. for 45 minutes. The resulting precipitate was suspended in tris buffer so as to give a concentration of 50 mg/ml and stored at -80° C. till use. The membrane specimens so prepared were thawed prior to use and submitted to tests for the inhibition of binding to muscarinic receptors.
3) Tests for the inhibition of binding to the muscarinic M2 receptors
The nonspecific binding of [^3 H]-N-methylscopolamine to receptors was determined by the addition of 1 mM N-methylscopolamine.

muscarinic M3 receptor [3] = biological target: T2, muscarinic M3 receptor; assay: in vivo; set-up: from tissue; host or cells: living rat, airways; conditions: iv, read-out: Mydriasis ED50
Experimental: as §1
3) Tests for mydriasis in rats
Five- to seven-weeks-old male rats of the Sprague-Dawley strain were anesthetized with pentobarbital (65 mg/kg, i.p.), and a cannula was inserted into the right jugular vein for purposes of drug administration. By using a graduated scale (pulilometer), pupillary responses to drugs were measured to the nearest 0.1 mm at the point of the greatest diameter. […] Responses were expressed as percentages of the maximal increase in pupil diameter induced by administration of atropine (30 μg/kg, i.v.). The ED50 value was calculated from the dose-response curve of the test compound using probit analysis and defined as the drug dose that induced 50% of the maximal response.

With `CC(C)=CCCN1CCC(NC(=O)C(O)(c2ccccc2)C2CCC2)CC1` (stereo not shown) [Example 1, N-[1-(4-methyl-3-pentenyl)-piperidin-4-yl]-2-cyclobutyl-2-hydroxy-2-phenylacetamide] the Kb [1] was 1.5 µM, the “Enterokinesis ID15” value (muscarinic M3 receptor [2]) was 0.67 mg/kg i.v and the Ki (muscarinic M2 receptors) was 0.86 µM. The ED50 (muscarinic M3 receptor [3]) was 1.4 mg/kg.
